Peptide text beside a SMILES is read from it. * marks the point of attachment. pNA = O=[N+]([O-])c1ccc(N*)cc1
Columns and labels:
thrombin = conditions: Svendsen et al; cited from earlier work
[1] = test system: thrombin generation in tissue factor triggered plasma; assay: Manual determination of thrombin generation in plasma (subsampling method) and calculated prothrombinase activity; assay type: biochemical, human
Procedure: Manual determination of thrombin generation in plasma: Extrinsic pathway: To 480 μL defibrinated plasma were added: 172 μL buffer A which contains the substrate at concentrations between 0 to 2000 μM and 20 μL of a 54 μM phospholipid solution (final concentration: 1.5 μM). After incubation of 4 min at 37° C., 24 μL tissue factor (undiluted) was added. Thrombin formation started at zero time by adding 24 μL of a 0.5 M CaCl2 solution (final concentration: 16.67 mM). At regular time intervals of 12 s samples of 10 μL were subsampled as described above. From the amidolytic activities thus obtained, the thrombin generation curve can be drawn. […] Intrinsic pathway: To 480 μL defibrinated plasma were added: 168 μL buffer A which contains the substrate at concentrations between 0 to 1000 μM and 48 μL Actin FS (undiluted). This mixture was intensively mixed and incubated for 4 min at 37° C. Thrombin generation was started at zero time by adding 24 μL of a 0.5 M CaCl2 solution (final concentration: 16.67 mM).
Influence of the substrate on the prothrombinase-complex: With the obtained decay constants and from the curves obtained by the subsampling method we calculated the course of prothrombin conversion and the course of prothrombinase concentration.
Manual determination of thrombin generation in plasma: Extrinsic pathway: To 480 μL defibrinated plasma were added: 172 μL buffer A which contained the substrate at concentrations between 0 to 2000 μM and 20 μL of a 54 μM phospholipid solution (final concentration: 1.5 μM). After incubation for 4 min at 37° C., 24 μL tissue factor (undiluted) was added. Thrombin formation started at zero time by adding 24 μL of a 0.5 M CaCl2 solution (final concentration: 16.67 mM). At regular time intervals of 12 s samples of 10 μL were subsampled as described above. From the amidolytic activities thus obtained, the thrombin generation curve can be drawn.
Influence of the substrate on the prothrombinase-compzex: With the obtained decay constants and from the curves obtained by the subsampling method we calculated the course of prothrombin conversion and the course of prothrombinase concentration.

human α-thrombin = molecular target: T1, human α-thrombin (Homo sapiens, UniProt P00734); assay: Kinetics of hydrolysis of substrates by human α-thrombin in buffer A at 37° C. (Example 2, Table 1); assay type: biochemical
T1 construct: Pure human α-thrombin; gift of Dr. T. Lindhout (University of Limburg, Maastricht)
How it was run: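 p-Nitroaniline release was followed at 405 nm (dual wavelength 405-546 nm) in buffer A at 37° C, with substrate at 1 to 2000 μM (at least six levels) preincubated 5 min before enzyme at 0.5 to 100 nM. Km and kcat came from initial velocities fitted to Michaelis-Menten by linear regression, from one or two experiments.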

factor Xa = molecular target: T2, factor Xa (Homo sapiens, UniProt P00742); assay: Kinetics of hydrolysis of substrates by human factor Xa in buffer A at 37° C. (Example 2, Table 2); assay type: biochemical; design: key to kcat: NH: not hydrolyzed by factor Xa
T2 construct: human factor Xa samples; gift of Dr. T. Lindhout (University of Limburg, Maastricht)
T2 sequence (P00742 41-179 limits assumed): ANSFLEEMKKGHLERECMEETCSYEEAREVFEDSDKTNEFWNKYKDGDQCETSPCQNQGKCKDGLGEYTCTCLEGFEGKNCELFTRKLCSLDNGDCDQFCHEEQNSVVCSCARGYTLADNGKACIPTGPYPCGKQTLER
T2 sequence (P00742 235-488 limits assumed): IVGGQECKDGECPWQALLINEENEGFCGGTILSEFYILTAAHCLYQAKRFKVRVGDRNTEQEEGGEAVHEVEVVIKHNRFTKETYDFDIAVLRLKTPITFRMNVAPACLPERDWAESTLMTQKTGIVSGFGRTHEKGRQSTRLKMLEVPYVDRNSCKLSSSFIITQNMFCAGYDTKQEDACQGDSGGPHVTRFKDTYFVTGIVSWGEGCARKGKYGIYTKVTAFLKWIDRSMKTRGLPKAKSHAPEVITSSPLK
Procedure: Kinetic parameters: The hydrolysis experiments were run in buffer A at 37° C. The liberation of p-nitroaniline was monitored at 405 nm in a dual wavelength (405-546 nm) spectrophotometer made in our workshop, using a personal computer for data recording. In a polystyrene microcuvette (total volume 500 μL), buffer A and substrate solution were added to obtain a final substrate concentration between 1 to 2000 μM. After 5 min of incubation at 37° C., enzyme solution was added to achieve a final concentration between 0.5 to 100 nM. The measurement was carried out at 37° C. in a thermostated cuvette-holder. The Michaelis constant (Km) and the catalytic constant (kcat) were obtained by measuring initial reaction velocities at different substrate concentrations. The data obtained were fitted by linear regression on the Michaelis-Menten equation.
Kinetic parameters: In a preliminary experiment, the substrate was hydrolyzed under the following conditions: enzyme concentration: 10 to 20 nM, substrate concentration: 200 μM in buffer A to get an impression of the initial velocity. […] The results are given in table 1 and 2 for thrombin and factor Xa respectively. The Km and kcat for each substrate were determined from the initial velocities measured for at least six substrate concentrations in the concentration range as given. The enzyme concentration used gives a good signal to noise ratio. The data given are obtained from one or two experiments. The data from table 1 and 2 were only used as the first selection criterion to get a rough impression of the hydrolysis behaviour. Notwithstanding the preliminary character of the measurement it was helpful in the design of the substrates of our interest.

In the case of CC(C)[C@H](N)C(=O)N[C@@H](CCCNC(=N)N)C(=O)Nc1ccc([N+](=O)[O-])cc1.Cl.Cl [2HCl.H-Val-Arg-pNA] (H-Val-Arg-pNA), the “factor by which poorer substrate for thrombin than Benzoyl-Phe-Val-Arg-p-nitroanilide” value (thrombin) is listed as ≥ 100, the “k2,M : k2 determined by the subsampling method” value (“k2,M : k2 determined” for short) ([1]; [S] 200 μM in plasma) is listed as 0.234 min⁻¹ and the “k2,M : k2 determined” value ([1]; [S] 500 μM in plasma) is listed as 0.207 min⁻¹. For the same compound, the “k2,M : k2 determined” value ([1]; [S] 1000 μM in plasma) was 0.199 min⁻¹, the “influence on the prothrombinase complex / coagulation cascade” value ([1]; calculated from decay constants and manual thrombin generation curves) was “clearly decreases its concentration” and the Km (human α-thrombin) was 1240 µM. The kcat (human α-thrombin) was 0.23 s⁻¹, the “kcat /Km” value (human α-thrombin) was 186 M/s and the kcat (factor Xa) was “NH”.

— patent US6207399A, “Methods of determining endogenous thrombin potential (ETP) and thrombin substrates for use in said methods” (Hemker; Hendrik Coenraad, priority 1995, dated 2001)
